Source: patent US8822517B2, “Arylosulfonamides for the treatment of CNS diseases” (Adamed SP. Z O.O., priority 2010, dated 2014)

Legend:
[1] = target: serotoninergic 5-HT7 receptor (Homo sapiens, UniProt P34969); experiment: Binding assay 5-HT7 (h), [3H]LSD, CHO cells; design: expressed in transfected cells; host or cells: CHO cells; conditions: read-out: 5-HT7
In short: (§1)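 Specific ligand binding was taken as total minus non-specific binding, with the latter defined in the presence of surplus unlabelled ligand. Each compound was tested at a single 1×10^−6 M concentration.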

[2] = system: adrenergic α1 receptor; experiment: Binding assay α1 (non-selective), [3H]prazosin, rat cerebral cortex; conditions: percent inhibition of control specific binding; compounds tested at 1×10^−6 M
In short: as §1

[3] = target: dopaminergic D2 receptor (Homo sapiens, UniProt P14416); experiment: Binding assay D2S (h), [3H]methyl-spiperone, HEK-293 cells; design: expressed in transfected cells; host or cells: HEK-293 cells; conditions: read-out: D2 [%]
dopaminergic D2 receptor, sequence (P14416 1-414 isoform P14416-2): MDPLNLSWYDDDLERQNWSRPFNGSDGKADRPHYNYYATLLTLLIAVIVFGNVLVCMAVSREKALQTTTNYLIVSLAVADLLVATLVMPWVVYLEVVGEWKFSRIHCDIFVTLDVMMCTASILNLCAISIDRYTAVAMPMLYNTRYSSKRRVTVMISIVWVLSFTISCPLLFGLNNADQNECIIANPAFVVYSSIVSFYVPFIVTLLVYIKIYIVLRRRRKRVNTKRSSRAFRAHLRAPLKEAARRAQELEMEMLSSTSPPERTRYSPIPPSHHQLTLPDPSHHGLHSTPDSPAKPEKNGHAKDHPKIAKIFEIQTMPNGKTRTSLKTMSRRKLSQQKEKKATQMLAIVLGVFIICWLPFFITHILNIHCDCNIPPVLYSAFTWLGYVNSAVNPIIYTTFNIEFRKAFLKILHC
In short: as §1

[4] = target: dopaminergic D3 receptor (Homo sapiens, UniProt P35462); experiment: Binding assay D3 (h), [3H]methyl-spiperone, CHO cells; design: expressed in transfected cells; host or cells: CHO cells; conditions: read-out: D3 [%]
dopaminergic D3 receptor, sequence (P35462 whole entry): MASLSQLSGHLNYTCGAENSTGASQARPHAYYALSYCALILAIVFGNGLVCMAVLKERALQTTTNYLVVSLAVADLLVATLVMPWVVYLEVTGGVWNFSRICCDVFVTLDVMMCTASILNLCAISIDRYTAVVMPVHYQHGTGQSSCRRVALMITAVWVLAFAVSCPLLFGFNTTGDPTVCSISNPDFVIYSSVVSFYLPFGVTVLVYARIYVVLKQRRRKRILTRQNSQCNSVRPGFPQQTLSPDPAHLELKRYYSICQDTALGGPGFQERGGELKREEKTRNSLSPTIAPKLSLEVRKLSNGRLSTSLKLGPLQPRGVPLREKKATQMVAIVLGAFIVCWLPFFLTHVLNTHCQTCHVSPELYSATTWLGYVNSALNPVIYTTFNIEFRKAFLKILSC
In short: as §1

[5] = target: T1, serotonine transporter (SERT) receptor (Homo sapiens, UniProt P31645); experiment: Binding assay SERT (h), [3H]imipramine, CHO cells; conditions: read-out: SERT [%]
T1 construct: expressed in transfected cells; host or cells: CHO cells
T1 sequence (P31645 whole entry): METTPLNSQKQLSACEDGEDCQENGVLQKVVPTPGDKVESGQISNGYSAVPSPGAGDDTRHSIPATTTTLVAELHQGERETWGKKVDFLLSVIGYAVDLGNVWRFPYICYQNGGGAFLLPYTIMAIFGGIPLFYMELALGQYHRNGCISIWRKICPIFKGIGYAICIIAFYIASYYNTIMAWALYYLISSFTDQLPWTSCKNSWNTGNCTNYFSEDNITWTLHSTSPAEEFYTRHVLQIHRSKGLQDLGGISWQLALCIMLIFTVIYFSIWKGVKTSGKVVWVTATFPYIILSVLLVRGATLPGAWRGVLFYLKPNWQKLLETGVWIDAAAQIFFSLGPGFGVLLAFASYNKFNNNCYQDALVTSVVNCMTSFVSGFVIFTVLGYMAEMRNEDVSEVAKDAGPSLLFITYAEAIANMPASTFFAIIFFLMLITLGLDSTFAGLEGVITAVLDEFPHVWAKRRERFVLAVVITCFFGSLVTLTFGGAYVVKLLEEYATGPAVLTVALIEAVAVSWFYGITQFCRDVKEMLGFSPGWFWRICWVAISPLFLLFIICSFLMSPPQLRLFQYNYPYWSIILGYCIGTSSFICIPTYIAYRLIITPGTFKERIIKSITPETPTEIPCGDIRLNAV
In short: as §1

[6] = target: T2, serotoninergic 5-HT1A receptor (Homo sapiens, UniProt P08908); experiment: Binding assay 5-HT1A (h), [3H]8-OH-DPAT, HEK-293 cells; design: expressed in transfected cells; host or cells: HEK-293 cells; conditions: read-out: 5-HT1A
T2 sequence (P08908 1-422): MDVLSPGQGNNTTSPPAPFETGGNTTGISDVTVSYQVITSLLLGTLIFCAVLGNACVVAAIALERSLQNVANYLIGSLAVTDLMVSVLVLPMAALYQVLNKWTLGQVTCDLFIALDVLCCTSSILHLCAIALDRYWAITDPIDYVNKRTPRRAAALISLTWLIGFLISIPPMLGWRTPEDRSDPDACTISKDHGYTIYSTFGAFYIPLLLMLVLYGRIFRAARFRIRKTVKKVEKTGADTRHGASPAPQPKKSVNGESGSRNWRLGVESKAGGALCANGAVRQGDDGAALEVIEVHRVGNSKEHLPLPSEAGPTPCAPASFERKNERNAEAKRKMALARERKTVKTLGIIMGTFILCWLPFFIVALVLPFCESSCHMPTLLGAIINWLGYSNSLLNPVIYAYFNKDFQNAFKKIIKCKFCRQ
In short: as §1

[7] = target: serotoninergic 5-HT6 receptor (Homo sapiens, UniProt P50406); experiment: Binding assay 5-HT6 (h), [3H]LSD, CHO cells; design: expressed in transfected cells; host or cells: CHO cells; conditions: read-out: 5-HT6
serotoninergic 5-HT6 receptor, sequence (P50406 whole entry): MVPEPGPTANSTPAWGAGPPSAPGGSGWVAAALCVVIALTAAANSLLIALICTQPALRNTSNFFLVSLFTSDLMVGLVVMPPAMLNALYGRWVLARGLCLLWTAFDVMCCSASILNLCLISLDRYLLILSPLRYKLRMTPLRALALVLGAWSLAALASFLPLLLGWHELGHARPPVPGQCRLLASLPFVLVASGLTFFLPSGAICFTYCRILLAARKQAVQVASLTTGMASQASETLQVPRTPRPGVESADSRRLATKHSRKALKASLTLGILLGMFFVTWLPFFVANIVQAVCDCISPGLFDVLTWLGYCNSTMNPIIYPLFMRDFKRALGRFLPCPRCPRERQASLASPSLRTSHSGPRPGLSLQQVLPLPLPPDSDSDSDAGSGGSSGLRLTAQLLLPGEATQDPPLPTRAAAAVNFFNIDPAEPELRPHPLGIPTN
In short: as §1

[8] = target: serotoninergic 5-HT2A receptor (Homo sapiens, UniProt P28223); experiment: Binding assay 5-HT2A (h), [3H]ketanserin, HEK-293 cells; design: expressed in transfected cells; host or cells: HEK-293 cells; conditions: read-out: 5-HT2A
serotoninergic 5-HT2A receptor, sequence (P28223 whole entry): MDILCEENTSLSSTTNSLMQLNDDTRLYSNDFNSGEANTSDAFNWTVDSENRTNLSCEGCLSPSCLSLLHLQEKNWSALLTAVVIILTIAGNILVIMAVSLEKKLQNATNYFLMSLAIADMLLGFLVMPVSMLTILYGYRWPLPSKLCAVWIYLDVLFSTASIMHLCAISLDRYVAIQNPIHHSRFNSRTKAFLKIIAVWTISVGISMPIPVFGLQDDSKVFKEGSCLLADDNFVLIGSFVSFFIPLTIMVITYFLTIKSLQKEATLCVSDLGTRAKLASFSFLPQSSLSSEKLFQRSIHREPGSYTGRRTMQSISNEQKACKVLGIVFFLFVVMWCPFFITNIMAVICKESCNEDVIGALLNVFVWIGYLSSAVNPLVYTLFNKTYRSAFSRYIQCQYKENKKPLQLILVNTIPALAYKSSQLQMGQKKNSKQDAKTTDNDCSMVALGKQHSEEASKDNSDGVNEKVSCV
In short: as §1

serotoninergic 5-HT7 receptor, sequence (P34969 whole entry): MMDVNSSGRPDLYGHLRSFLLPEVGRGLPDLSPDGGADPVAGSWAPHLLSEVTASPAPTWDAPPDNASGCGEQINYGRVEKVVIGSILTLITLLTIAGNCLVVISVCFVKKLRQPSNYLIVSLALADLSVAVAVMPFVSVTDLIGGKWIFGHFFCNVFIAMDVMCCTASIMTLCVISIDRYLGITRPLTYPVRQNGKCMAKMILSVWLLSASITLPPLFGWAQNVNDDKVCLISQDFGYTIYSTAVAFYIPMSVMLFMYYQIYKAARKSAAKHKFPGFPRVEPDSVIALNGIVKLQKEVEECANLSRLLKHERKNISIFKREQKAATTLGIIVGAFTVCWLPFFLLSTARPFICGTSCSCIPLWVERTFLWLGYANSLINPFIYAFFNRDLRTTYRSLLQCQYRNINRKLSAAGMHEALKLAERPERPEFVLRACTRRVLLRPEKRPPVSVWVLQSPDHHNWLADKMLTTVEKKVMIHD

Row | Compound | inhibition at 1 µM [1] | α1 [%] [2] | inhibition at 1 µM [3] | inhibition at 1 µM [4] | inhibition at 1 µM [5] | inhibition at 1 µM [6] | inhibition at 1 µM [7] | inhibition at 1 µM [8]
1 | O=S(=O)(NCCCCN1CCN(c2nsc3ccccc23)CC1)c1cccc(Br)c1 [Compound 230, N-[4-[4-(1,2-Benzothiazol-3-yl)piperazin-1-yl]butyl]-3-bromobenzenesulphonamide] | 101% | 98% | 105% | 87% | 13% | 85% | 85% | 87%
2 | COc1cccc(S(=O)(=O)NCCCCN2CCN(c3nsc4ccccc34)CC2)c1 [Compound 232, N-[4-[4-(1,2-Benzothiazol-3-yl)piperazin-1-yl]butyl]-3-methoxybenzenesulphonamide] | 89% | 94% | 92% | 89% | 13% | 89% | 76% | 100%
3 | CC(C)(C)c1ccc(S(=O)(=O)NCCCCN2CCN(c3nsc4ccccc34)CC2)cc1 [Compound 233, N-[4-[4-(1,2-Benzothiazol-3-yl)piperazin-1-yl]butyl]-4-tert-butyl-benzenesulphonamide] | 93% | 94% | 83% | 76% | 5% | 53% | 76% | 100%
4 | O=S(=O)(NCCCCN1CCN(c2nsc3ccccc23)CC1)c1ccc(C(F)(F)F)cc1 [Compound 234, N-[4-[4-(1,2-Benzothiazol-3-yl)piperazin-1-yl]butyl]-4-(trifluoromethyl)benzenesulphonamide] | 97% | 91% | 85% | 91% | 32% | 95% | 62% | 92%
5 | O=S(=O)(NCCCCN1CCN(c2nsc3ccccc23)CC1)c1cccc(C(F)(F)F)c1 [Compound 235, N-[4-[4-(1,2-Benzothiazol-3-yl)piperazin-1-yl]butyl]-3-(trifluoromethyl)benzenesulphonamide] | 93% | 95% | 103% | 87% | 8% | 86% | 82% | 80%
6 | O=S(=O)(NCCCCN1CCN(c2nsc3ccccc23)CC1)c1ccc(OC(F)(F)F)cc1 [Compound 236, N-[4-[4-(1,2-Benzothiazol-3-yl)piperazin-1-yl]butyl]-4-(trifluoromethoxy)benzenesulphonamide] | 91% | 92% | 99% | 85% | -15% | 76% | 67% | 89%
7 | O=S(=O)(NCCCCN1CCN(c2nsc3ccccc23)CC1)c1ccc(-c2ccccc2)cc1 [Compound 237, N-[4-[4-(1,2-Benzothiazol-3-yl)piperazin-1-yl]butyl]-4-phenylbenzenesulphonamide] | 64% | 87% | 62% | 85% | -7% | 51% | 89% | 24%
8 | O=S(=O)(NCCCCN1CCN(c2nsc3ccccc23)CC1)c1cccs1 [Compound 238, N-[4-[4-(1,2-Benzothiazol-3-yl)piperazin-1-yl]butyl]thiophene-2-sulphonamide] | 88% | 103% | 87% | 85% | 13% | 90% | 74% | 95%
9 | O=S(=O)(NCCCCN1CCN(c2nsc3ccccc23)CC1)c1ccc2c(c1)CCO2 [Compound 242, N-[4-[4-(1,2-Benzothiazol-3-yl)piperazin-1-yl]butyl]-2,3-dihydrobenzofuran-5-sulphonamide] | 101% | 98% | 105% | 89% | 12% | 92% | 73% | 94%
10 | O=S(=O)(NCCCCN1CCN(c2nsc3ccccc23)CC1)c1ccc2cn[nH]c2c1 [Compound 244, N-[4-[4-(1,2-Benzothiazol-3-yl)piperazin-1-yl]butyl]-1H-indazole-6-sulphonamide] | 98% | 98% | 105% | 91% | 19% | 69% | 81% | 96%
11 | O=S(=O)(NCCCCN1CCN(c2nsc3ccccc23)CC1)c1cnc2ccccn12 [Compound 246, N-[4-[4-(1,2-Benzothiazol-3-yl)piperazin-1-yl]butyl]imidazo[1,2-a]pyridine-3-sulphonamide] | 86% | 99% | 98% | 86% | 31% | 91% | 49% | 88%
12 | O=S(=O)(NCCCCN1CCN(c2nsc3ccccc23)CC1)c1c[nH]c2ncccc12 [Compound 247, N-[4-[4-(1,2-Benzothiazol-3-yl)piperazin-1-yl]butyl]-1H-pyrrolo[2,3-b]pyridine-3-sulphonamide] | 93% | 98% | 104% | 83% | 14% | 78% | 93% | 88%
13 | O=S(=O)(NCCCN1CCN(c2nsc3ccccc23)CC1)c1cccc(O)c1 [Compound 254, N-[3-[4-(1,2-Benzothiazol-3-yl)piperazin-1-yl]propyl]-3-hydroxybenzenesulphonamide] | 93% | 96% | 87% | 98% | 9% | 94% | 76% | 90%
14 | COc1cccc(S(=O)(=O)NCCCN2CCN(c3nsc4ccccc34)CC2)c1 [Compound 255, N-[3-[4-(1,2-Benzothiazol-3-yl)piperazin-1-yl]propyl]-3-methoxybenzenesulphonamide] | 91% | 92% | 98% | 82% | 29% | 93% | 68% | 84%
15 | O=S(=O)(NCCCN1CCN(c2nsc3ccccc23)CC1)c1ccc(OC(F)(F)F)cc1 [Compound 259, N-[3-[4-(1,2-Benzothiazol-3-yl)piperazin-1-yl]propyl]-4-(trifluoromethoxy)benzenesulphonamide] | 96% | 88% | 93% | 85% | 16% | 97% | 74% | 56%
16 | O=S(=O)(NCCCN1CCN(c2nsc3ccccc23)CC1)c1cc2ccc(Cl)cc2s1 [Compound 264, N-[3-[4-(1,2-Benzothiazol-3-yl)piperazin-1-yl]propyl]-6-chlorobenzothiophene-2-sulphonamide] | 75% | 53% | 87% | 65% | -18% | 54% | 63% | 105%
17 | O=S(=O)(NCCCN1CCN(c2nsc3ccccc23)CC1)c1c[nH]c2ncccc12 [Compound 270, N-[3-[4-(1,2-Benzothiazol-3-yl)piperazin-1-yl]propyl]-1H-pyrrolo[2,3-b]pyridine-3-sulphonamide] | 82% | 88% | 74% | 82% | 12% | 75% | 70% | 89%
